# Results as given in patent US20230223113A1, “Methods and Systems for Rapid Antimicrobial Susceptibility Tests” (The Regents of the University of California, priority 2020, published 2023).
# Where a name gives a salt, the structure may show the parent alone.
# Key:
# [1] = tested on: Pseudomonas aeruginosa (strain PA14 wild type); experiment: Dose-response growth curves (OD600 after 24 h) to identify the minimum inhibitory concentration; format: cell-based; conditions: for MIC: Pseudomonas aeruginosa, P. aeruginosa PA14, the stated concentration is 'just below' the MIC
# Experimental: (§1) Optical density at 600 nm (OD600) to identify the minimum inhibitory concentration (MIC) of A) carbenicillin, B) rifampicin, and C) gentamicin for Pseudomonas aeruginosa, and D) gentamicin for Escherichia coli in accordance with an embodiment is illustrated in FIGS. 5A-5D. The P. aeruginosa strain, PA14 used in some embodiments has differing susceptibility to carbenicillin [+C] and rifampicin [+R]. Several embodiments refer to the antibiotic treatments that are performed with 50 μg/mL and 400 μg/mL of carbenicillin and rifampicin, respectively as the AST dataset. These concentrations are just below the respective minimum inhibitory concentrations (MICs) for these antibiotics in P. aeruginosa, as shown in FIGS. 5A and 5B. OD600 of a P. aeruginosa cell culture at indicated growth times after adjustment to OD at 0.5 at 0 h, A) without antibiotic treatment, B) with 50 μg/mL carbenicillin introduced at 0 h, and C) with 400 μg/mL rifampicin introduced at 0 h in accordance with an embodiment of the invention is illustrated in FIGS. 6A-6C.
# (§2) Pseudomonas aeruginosa (strain PA14 wild type) and Escherichia coli (strain MC4100, K-12, F-araD139Δ(argF-lac)U169 rspL150 relA1 fIbB5301 fruA25 deoC1 ptsF25) cultures were obtained by first streaking from a frozen culture stock onto LB Lennox agar (IBI Scientific) plates and incubated at 37° C. for 24 h. Individual colonies from these plates were used to inoculate 100 mL of LB in triplicate, and subsequently grown for 18 h at 37° C. and shaking at 230 rpm. The 18 h cultures were centrifuged at 5000 rpm for 5 minutes, then resuspended in fresh LB to reach an optical density at 600 nm (OD600) of 0.50 as measured by a BioChrom Colourwave CO7500 Colorimeter.
# Dose-Response Curves: Carbenicillin disodium salt, gentamicin sulfate, and rifampicin stock solutions were prepared to a final concentration of 10 mg/mL in water for the former two and 20% (v/v) DMSO/H2O for the latter. These stock solutions were added into 180 μL of E. coli or P. aeruginosa resuspension in a 96-well plate such that 9 separate 10-fold dilutions of each antibiotic starting at 1000 μg/mL were achieved. Vehicle controls using pure water for carbenicillin and gentamicin and 20% (v/v) DMSO/H2O for rifampicin were also created in the same 96-well plate. These plates were then incubated at 37° C. for 24 h with 230 rpm shaking, after which OD600 measurements were taken with a SpectraMax M2 Plate Reader.
# P. aeruginosa lysate = experiment: SERS spectra of cell lysate after antibiotic exposure, VAE latent space analysis; format: cell-based, Pseudomonas aeruginosa
# Experimental: The VAE space from analysis of the AST dataset in accordance with many embodiments provide clustering of the different treatment classes. VAE space of AST spectra from untreated [−−] P. aeruginosa lysate (0.5 h/2 h), 50 μg/mL carbenicillin treated [+C] P. aeruginosa lysate (0.5 h/2 h), 400 μg/mL rifampicin treated [+R] P. aeruginosa lysate (0.5 h/2 h) in accordance with an embodiment of the invention is illustrated in FIG. 7A. […] Some embodiments provide that larger relative VAE 1 values can be observed for 30 minute treatment times for all treatment classes as compared to 2 hour exposure. This is consistent with OD600 measurements indicating cell recovery after 2 hour in FIGS. 6A-6C.
# Many embodiments provide VAE performance on differentiating spectra from multiple bacterial species, a different antibiotic, time points, and dosages. SERS spectra from cellular lysate with varying dose and temporal response of P. aeruginosa and E. coli when exposed to gentamicin are analyzed similarly as the AST dataset in several embodiments. When analyzing the SERS spectra from E. coli and P. aeruginosa with the VAE method, differentiation of P. aeruginosa lysate data at concentrations at about 0.1 μg/mL, an order of magnitude below the MIC, can be observed in accordance with some embodiments. […]
# E. coli lysate = experiment: as above; format: cell-based, Escherichia coli
# Experimental: Many embodiments provide VAE performance on differentiating spectra from multiple bacterial species, a different antibiotic, time points, and dosages. SERS spectra from cellular lysate with varying dose and temporal response of P. aeruginosa and E. coli when exposed to gentamicin are analyzed similarly as the AST dataset in several embodiments. When analyzing the SERS spectra from E. coli and P. aeruginosa with the VAE method, differentiation of P. aeruginosa lysate data at concentrations at about 0.1 μg/mL, an order of magnitude below the MIC, can be observed in accordance with some embodiments. FIG. 9A illustrates VAE latent space analysis of SERS spectra of dose response of P. aeruginosa with analysis of 0, 0.1, 0.5, 1, and 10 μg/mL gentamicin dosed lysate respectively in accordance with an embodiment. In several embodiments, lysate from P. aeruginosa exposed to 10 μg/mL gentamicin (10×MIC) can be analyzed with VAE method and differentiated from control data in the VAE space at about 20 minute after initial exposure. The short temporal response time in accordance with some embodiments is much earlier than reported 2 hour response time for SERS AST. FIG. 9B illustrates VAE latent spaces of temporal response of P. aeruginosa with lysate processed after 0, 5, 10, 20, and 40 minutes of 10 μg/mL gentamicin dosage respectively in accordance with an embodiment. […]
# [2] = tested on: P. aeruginosa cell culture; experiment: OD600 of cell culture over time of antibiotic exposure after adjustment to OD 0.5; format: cell-based, Pseudomonas aeruginosa; conditions: 50 μg/mL carbenicillin, about 2 hour exposure
# Experimental: as §1, with “OD600 of a P. aeruginosa cell culture at indicated growth times after adjustment to OD at 0.5 at 0 h, A) without antibiotic treatment, B) with 50 μg/mL carbenicillin introduced at 0 h, and C) with 400 μg/mL rifampicin introduced at 0 h in accordance with an embodiment of the invention is illustrated in FIGS. 6A-6C.” left out
# as §2, with “Individual colonies from these plates were used to inoculate 100 mL of LB in triplicate, and subsequently grown for 18 h at 37° C. and shaking at 230 rpm.” left out, “Colorimeter. […]” for “Colorimeter.”
Molecule,"dose as a multiple of the MIC ([1]; 10 μg/mL gentamicin, P. aeruginosa) [×MIC]","resistance of P. aeruginosa (from growth curves, FIGS. 5A-5D) ([1]; P. aeruginosa)",time after initial exposure at which lysate is differentiated from control in VAE space (P. aeruginosa lysate; 10 μg/mL gentamicin),"antibiotic concentration at which lysate data are differentiated from control in VAE space (P. aeruginosa lysate; gentamicin dose response 0, 0.1, 0.5, 1, 10 μg/mL, an order of magnitude below the MIC)",time after initial exposure at which discernable clustering appears in VAE space (E. coli lysate; 10 μg/mL gentamicin),"antibiotic concentration at which lysate data are differentiated from control treatment in VAE space (E. coli lysate; gentamicin dose response 0, 0.1, 0.5, 1, 10 μg/mL) [µg/mL]",MIC [1] [µg/mL],growth inhibition over the time of exposure (OD600) [2]
gentamicin sulfate,10,evident resistance,about 20 minute,about 0.1 μg/mL,about 10 minute,≤ 0.1,–,–
"CC1(C)S[C@@H]2[C@H](NC(=O)C(C(=O)O)c3ccccc3)C(=O)N2[C@H]1C(=O)O (stereo partly drawn) [carbenicillin, Carbenicillin disodium salt]",–,–,–,–,–,–,> 50,does not exhibit any significant growth inhibition
CO[C@H]1/C=C/O[C@@]2(C)Oc3c(C)c(O)c4c(O)c(c(/C=N/N5CCN(C)CC5)c(O)c4c3C2=O)NC(=O)/C(C)=C\C=C\[C@H](C)[C@H](O)[C@@H](C)[C@@H](O)[C@@H](C)[C@H](OC(C)=O)[C@@H]1C [rifampicin],–,–,–,–,–,–,> 400,–
